Measurements from ChEMBL document CHEMBL1201862, “PubChem BioAssay data set” (2004).
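Growth conditions: 96-well plates. Treatment: test compound, 48 hours, 5 concentrations. Analysis: linear interpolation between bracketing concentrations; unreached endpoints set to highest concentration. GI50 marks 50% less growth.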 Calls of active or inactive are those of the source. Rule as the data show it: active = GI50 up to about 1.1 µM and inactive = higher.

Key:
Test in all cases: DTP human tumour cell line panel, 48 h
MDA-MB-435 = test system: MDA-MB-435
NCI/ADR-RES = test system: NCI/ADR-RES
A549 = test system: A549
RXF 393 = test system: RXF 393
COLO 205 = test system: COLO 205
HCT-116 = test system: HCT-116
CCRF-CEM = test system: CCRF-CEM
OVCAR-3 = test system: OVCAR-3
U-251 = test system: U-251
MCF7 = test system: MCF7
NCI-H23 = test system: NCI-H23
SNB-75 = test system: SNB-75
HL-60 = test system: HL-60
OVCAR-8 = test system: OVCAR-8
CAKI-1 = test system: CAKI-1
LOX IMVI = test system: LOX IMVI
HOP-62 = test system: HOP-62
M14 = test system: M14
SR = test system: SR
A498 = test system: A498

Compound	GI50 (MDA-MB-435)	GI50 (NCI/ADR-RES)	GI50 (A549)	GI50 (RXF 393)	GI50 (COLO 205)	GI50 (HCT-116)	GI50 (CCRF-CEM)	GI50 (OVCAR-3)	GI50 (U-251)	GI50 (MCF7)	GI50 (NCI-H23)	GI50 (SNB-75)	GI50 (HL-60)	GI50 (OVCAR-8)	GI50 (CAKI-1)	GI50 (LOX IMVI)	GI50 (HOP-62)	GI50 (M14)	GI50 (SR)	GI50 (A498)
Cc1c(CNc2ccc(C(=O)NC(CCCNC(=O)c3ccccc3C(=O)O)C(=O)O)cc2)cnc2nc(N)nc(N)c12 (centres undefined)	0.000596 µM (active)	0.000298 µM (active)	0.000419 µM (active)	0.382 µM (active)	0.00671 µM (active)	0.000582 µM (active)	0.00057 µM (active)	0.0168 µM (active)	0.00358 µM (active)	0.0007 µM (active)	0.00151 µM (active)	0.00222 µM (active)	> 100 µM (inactive)	0.000324 µM (active)	0.001 µM (active)	< 0.0001 µM (active)	0.387 µM (active)	0.000656 µM (active)	0.000452 µM (active)	
CN(C)C(=S)SCc1ccccc1	> 100 µM (inactive)	> 100 µM (inactive)	> 100 µM (inactive)	3.85 µM (inactive)	> 100 µM (inactive)	83.9 µM (inactive)	> 100 µM (inactive)	> 100 µM (inactive)	> 100 µM (inactive)	> 100 µM (inactive)	> 100 µM (inactive)	2.41 µM (inactive)	99.1 µM (inactive)	> 100 µM (inactive)	> 100 µM (inactive)	> 100 µM (inactive)	> 100 µM (inactive)	> 100 µM (inactive)		62.5 µM (inactive)
Cn1cc(C(=O)c2nccc3c2cnc2ccccc23)ccc1=O	> 100 µM (inactive)	> 100 µM (inactive)	56.1 µM (inactive)	< 0.01 µM (active)	69.5 µM (inactive)	31.9 µM (inactive)	> 100 µM (inactive)	> 100 µM (inactive)	> 100 µM (inactive)		> 100 µM (inactive)	29.4 µM (inactive)	> 100 µM (inactive)	> 100 µM (inactive)	13.2 µM (inactive)	> 100 µM (inactive)	25.9 µM (inactive)	> 100 µM (inactive)	8.17 µM (inactive)	> 100 µM (inactive)
Cc1ccc(S(=O)(=O)N/N=C2/C3CCC(C3)C2c2ccccc2)cc1 (centres undefined)	> 100 µM (inactive)	> 100 µM (inactive)	> 100 µM (inactive)		> 100 µM (inactive)	> 100 µM (inactive)	> 100 µM (inactive)	> 100 µM (inactive)	> 100 µM (inactive)	> 100 µM (inactive)	> 100 µM (inactive)	> 100 µM (inactive)	> 100 µM (inactive)	> 100 µM (inactive)	> 100 µM (inactive)	> 100 µM (inactive)	> 100 µM (inactive)	> 100 µM (inactive)	> 100 µM (inactive)	
C/C(CC1C2CCCC1C2)=N\NC(N)=O (centres undefined)	> 100 µM (inactive)	> 100 µM (inactive)	> 100 µM (inactive)		> 100 µM (inactive)	> 100 µM (inactive)	> 100 µM (inactive)	7.24 µM (inactive)	> 100 µM (inactive)	> 100 µM (inactive)	> 100 µM (inactive)	> 100 µM (inactive)	> 100 µM (inactive)	> 100 µM (inactive)	> 100 µM (inactive)	> 100 µM (inactive)	> 100 µM (inactive)	> 100 µM (inactive)	> 100 µM (inactive)	
CN(C)CCCCN1c2ccccc2Sc2ccc(N=[N+]=[N-])cc21	2.06 µM (inactive)	9.98 µM (inactive)	9.93 µM (inactive)	4.06 µM (inactive)	1.72 µM (inactive)	4.21 µM (inactive)	2.69 µM (inactive)	6.05 µM (inactive)	3.13 µM (inactive)	2.45 µM (inactive)	13.3 µM (inactive)	2.62 µM (inactive)	2.06 µM (inactive)	10 µM (inactive)	5.62 µM (inactive)	2.26 µM (inactive)	11.5 µM (inactive)	1.67 µM (inactive)		8.73 µM (inactive)
O=C1NC(=O)/C(=C/c2ccc(S(=O)(=O)N/N=C/c3ccccc3)cc2)N1	> 100 µM (inactive)	> 100 µM (inactive)	> 100 µM (inactive)	> 100 µM (inactive)	> 100 µM (inactive)	> 100 µM (inactive)	> 100 µM (inactive)	> 100 µM (inactive)	> 100 µM (inactive)	> 100 µM (inactive)	> 100 µM (inactive)	> 100 µM (inactive)	> 100 µM (inactive)	> 100 µM (inactive)	> 100 µM (inactive)	> 100 µM (inactive)	> 100 µM (inactive)	> 100 µM (inactive)		2.75 µM (inactive)
CC1(C)N=C(C2CCCN2C(=O)OCc2ccccc2)OC1=O (centres undefined)	> 100 µM (inactive)	> 100 µM (inactive)	> 100 µM (inactive)	30 µM (inactive)	> 100 µM (inactive)	> 100 µM (inactive)	> 100 µM (inactive)	> 100 µM (inactive)	> 100 µM (inactive)	> 100 µM (inactive)	> 100 µM (inactive)	> 100 µM (inactive)	> 100 µM (inactive)	> 100 µM (inactive)	> 100 µM (inactive)	> 100 µM (inactive)	> 100 µM (inactive)	> 100 µM (inactive)		> 100 µM (inactive)
Cn1c(=O)c2c(nc(N/N=C3/SCC(=O)N3Cc3ccccc3)n2C)n(C)c1=O	> 100 µM (inactive)	> 100 µM (inactive)	89.5 µM (inactive)	> 100 µM (inactive)	50.4 µM (inactive)	> 100 µM (inactive)	47.9 µM (inactive)	20.9 µM (inactive)	54.6 µM (inactive)	81.7 µM (inactive)	> 100 µM (inactive)			> 100 µM (inactive)	> 100 µM (inactive)		> 100 µM (inactive)	> 100 µM (inactive)		> 100 µM (inactive)
Fc1ccccc1C1SCc2nc3cc4ccccc4cc3n21 (centres undefined)	> 100 µM (inactive)	49.1 µM (inactive)	64.9 µM (inactive)	13.3 µM (inactive)	86.7 µM (inactive)	24.9 µM (inactive)	> 100 µM (inactive)	> 100 µM (inactive)	33.7 µM (inactive)	22.7 µM (inactive)	> 100 µM (inactive)	31.7 µM (inactive)	13.2 µM (inactive)	36.6 µM (inactive)	37 µM (inactive)		> 100 µM (inactive)	> 100 µM (inactive)		
C=CC(Br)(CBr)CCC(Cl)C(C)C (centres undefined)	1.82 µM (inactive)		4.69 µM (inactive)	1.6 µM (inactive)	3.38 µM (inactive)	3.12 µM (inactive)	0.364 µM (active)	2.02 µM (inactive)	1.66 µM (inactive)	1.39 µM (inactive)	2.74 µM (inactive)	1.49 µM (inactive)	0.561 µM (active)		2.62 µM (inactive)	1.15 µM (inactive)	1.8 µM (inactive)	1.7 µM (inactive)	0.481 µM (active)	13.7 µM (inactive)
COC(=O)Cc1cc(O)c(C/C=C(\C)CC/C=C(\C)C(O)C(=O)C=C(C)C)cc1O (centres undefined)	20.6 µM (inactive)	22.5 µM (inactive)	25.6 µM (inactive)	14.5 µM (inactive)	24.8 µM (inactive)	17.3 µM (inactive)	2.93 µM (inactive)	19.4 µM (inactive)	18.7 µM (inactive)	32.1 µM (inactive)	39.4 µM (inactive)	18.2 µM (inactive)	2.76 µM (inactive)	23.2 µM (inactive)			19.6 µM (inactive)	26.3 µM (inactive)	15.6 µM (inactive)	
COc1cc(/C=C2\CCC(C)C3=C2N=c2s/c(=C/c4ccc(Cl)cc4)c(=O)n2C3c2cc(OC)c(OC)c(OC)c2)cc(OC)c1OC (centres undefined)	> 100 µM (inactive)		> 100 µM (inactive)	> 100 µM (inactive)		> 100 µM (inactive)	> 100 µM (inactive)		> 100 µM (inactive)	> 100 µM (inactive)		0.277 µM (active)	> 100 µM (inactive)	> 100 µM (inactive)	> 100 µM (inactive)	> 100 µM (inactive)	> 100 µM (inactive)	> 100 µM (inactive)	> 100 µM (inactive)	> 100 µM (inactive)
CC(C)C1=CC23CCC4C(C)(C(=O)O)CCCC4(C)C2CC1C1C(=O)N(c2ccc(Cc4ccc(N5C(=O)C6C7CC8C9(C)CCCC(C)(C(=O)O)C9CCC8(C=C7C(C)C)C6C5=O)cc4)cc2)C(=O)C13 (centres undefined)	3.55 µM (inactive)		3.72 µM (inactive)	13 µM (inactive)	7.06 µM (inactive)	4.39 µM (inactive)	5.41 µM (inactive)	10.7 µM (inactive)	3.94 µM (inactive)	5.13 µM (inactive)	1.93 µM (inactive)		9.35 µM (inactive)	5.26 µM (inactive)			11.6 µM (inactive)	9.44 µM (inactive)	5.75 µM (inactive)	8.51 µM (inactive)
O=c1cccc2n1C[C@H]1CNC[C@H]2C1	> 100 µM (inactive)	> 100 µM (inactive)	> 100 µM (inactive)	47 µM (inactive)	> 100 µM (inactive)	> 100 µM (inactive)	> 100 µM (inactive)	> 100 µM (inactive)	> 100 µM (inactive)	> 100 µM (inactive)	> 100 µM (inactive)	> 100 µM (inactive)	> 100 µM (inactive)	> 100 µM (inactive)	> 100 µM (inactive)	> 100 µM (inactive)	> 100 µM (inactive)	> 100 µM (inactive)		> 100 µM (inactive)
